Each block holds one compound with its values, some of them ahead of it.
Key:
[1] = target: T1, Growth hormone secretagogue receptor type 1 (Homo sapiens, UniProt Q92847); assay: Antagonist activity at ghrelin receptor assessed as inhibition of ghrelin-induced Ca2+ release by cell based assay; format: functional
[2] = target: T1, Growth hormone secretagogue receptor type 1; assay: Agonist activity at ghrelin receptor; format: functional
[3] = Ratio of drug level in liver to plasma of monkey; format: ADME, tissue-based, Macaca mulatta; settings: rhesus monkey
[4] = Inhibition of HCV6 NS3 protease; design: species or system Hepatitis C virus genotype 6
[5] = Inhibition of HCV4 NS3 protease; design: species or system Hepatitis C virus genotype 4
[6] = Inhibition of HCV5 NS3 protease; design: species or system Hepatitis C virus genotype 5
[7] = Inhibition of HCV 2b NS3 protease; design: species or system Hepatitis C virus subtype 2b
[8] = Inhibition of HCV 3a NS3 protease; design: species or system Hepatitis C virus subtype 3a
[9] = Inhibition of HCV 1a NS3 protease; design: species or system Hepatitis C virus subtype 1a
[10] = tested on: Hepatitis C virus; assay: Inhibition of HCV 1b NS3 protease; design: species or system Hepatitis C virus subtype 1b; settings: Hepatitis C virus
[11] = in vivo; settings: rat, liver/plasma
Description: Ratio of drug level in liver to plasma of rat

[12] = tested on: Hepatitis C virus; assay: microbe, parasite or virus in culture
Description: Antiviral activity against HCV by cell based replicon assay

[13] = target: C-X-C chemokine receptor type 4 (Homo sapiens, UniProt P61073); assay: Antagonist activity at CXCR4; format: functional
Sequence of C-X-C chemokine receptor type 4 (P61073 whole entry): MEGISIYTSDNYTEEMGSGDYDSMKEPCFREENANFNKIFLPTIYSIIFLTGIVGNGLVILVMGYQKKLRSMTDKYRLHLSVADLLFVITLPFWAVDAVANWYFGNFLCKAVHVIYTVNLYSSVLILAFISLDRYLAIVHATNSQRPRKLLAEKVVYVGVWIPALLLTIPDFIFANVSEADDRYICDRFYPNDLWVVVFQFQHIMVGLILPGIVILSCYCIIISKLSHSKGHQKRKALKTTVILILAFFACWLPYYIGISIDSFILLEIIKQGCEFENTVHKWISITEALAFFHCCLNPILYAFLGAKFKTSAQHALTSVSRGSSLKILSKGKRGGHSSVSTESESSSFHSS

[14] = target: Cyclin-dependent kinase 1 (Homo sapiens, UniProt P06493); assay: Inhibition of CDK1
Sequence of Cyclin-dependent kinase 1 (P06493 whole entry): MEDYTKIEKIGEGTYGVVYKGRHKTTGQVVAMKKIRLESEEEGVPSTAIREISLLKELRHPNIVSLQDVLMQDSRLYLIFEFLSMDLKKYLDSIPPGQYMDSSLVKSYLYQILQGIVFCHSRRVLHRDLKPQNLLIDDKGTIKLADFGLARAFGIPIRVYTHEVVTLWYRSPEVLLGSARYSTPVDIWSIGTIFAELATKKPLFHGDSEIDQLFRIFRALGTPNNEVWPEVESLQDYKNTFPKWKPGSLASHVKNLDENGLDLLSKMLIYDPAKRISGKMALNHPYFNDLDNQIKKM

[15] = target: Cyclin-dependent kinase 2 (Homo sapiens, UniProt P24941); assay: Inhibition of CDK2
[16] = tested on: MCF7; assay: cells; settings: Homo sapiens
Description: Antiproliferative activity against human MCF7 cells

[17] = Protein binding in human plasma; format: ADME, cell-free; settings: read-out: PPB (converted)
[18] = Half life in monkey; format: ADME, organism-based, Macaca mulatta; settings: rhesus monkey, in vivo
[19] = Half life in rat; format: ADME, organism-based; settings: in vivo
[20] = Half life in dog; format: ADME, organism-based, Canis lupus familiaris; settings: in vivo
[21] = Oral bioavailability in monkey; format: ADME, organism-based, Macaca mulatta; settings: rhesus monkey, in vivo
[22] = Oral bioavailability in dog; format: ADME, organism-based, Canis lupus familiaris; settings: in vivo
[23] = Oral bioavailability in rat; format: ADME, organism-based; settings: in vivo
[24] = in vivo; settings: rat
[25] = tested on: Hepatitis C virus; assay: microbe, parasite or virus in culture; settings: genotype 1b
Description: Antiviral activity against HCV1b by cell based replicon assay

[26] = tested on: Hepatitis C virus; assay: microbe, parasite or virus in culture; settings: subtype 1a
Description: Antiviral activity against HCV1a by cell based replicon assay

[27] = target: T1, Growth hormone secretagogue receptor type 1; assay: Agonist activity at ghrelin receptor by cell based assay; format: functional
[28] = target: T2, Growth factor receptor-bound protein 2 (Homo sapiens, UniProt P62993); assay: Inhibition of SH2 domain of GRB2 in human MDA-MB-453 cells; format: cell-based
[29] = target: T2, Growth factor receptor-bound protein 2; assay: Inhibition of SH2 domain of GRB2 in human MDA-MB-231 cells; format: cell-based
[30] = target: T2, Growth factor receptor-bound protein 2; assay: Inhibition of SH2 domain of GRB2 by whole cell based assay
[31] = target: High affinity nerve growth factor receptor (Homo sapiens, UniProt P04629); assay: Inhibition of TrkA assessed as inhibition of mAb5C3 binding
Sequence of High affinity nerve growth factor receptor (P04629 whole entry): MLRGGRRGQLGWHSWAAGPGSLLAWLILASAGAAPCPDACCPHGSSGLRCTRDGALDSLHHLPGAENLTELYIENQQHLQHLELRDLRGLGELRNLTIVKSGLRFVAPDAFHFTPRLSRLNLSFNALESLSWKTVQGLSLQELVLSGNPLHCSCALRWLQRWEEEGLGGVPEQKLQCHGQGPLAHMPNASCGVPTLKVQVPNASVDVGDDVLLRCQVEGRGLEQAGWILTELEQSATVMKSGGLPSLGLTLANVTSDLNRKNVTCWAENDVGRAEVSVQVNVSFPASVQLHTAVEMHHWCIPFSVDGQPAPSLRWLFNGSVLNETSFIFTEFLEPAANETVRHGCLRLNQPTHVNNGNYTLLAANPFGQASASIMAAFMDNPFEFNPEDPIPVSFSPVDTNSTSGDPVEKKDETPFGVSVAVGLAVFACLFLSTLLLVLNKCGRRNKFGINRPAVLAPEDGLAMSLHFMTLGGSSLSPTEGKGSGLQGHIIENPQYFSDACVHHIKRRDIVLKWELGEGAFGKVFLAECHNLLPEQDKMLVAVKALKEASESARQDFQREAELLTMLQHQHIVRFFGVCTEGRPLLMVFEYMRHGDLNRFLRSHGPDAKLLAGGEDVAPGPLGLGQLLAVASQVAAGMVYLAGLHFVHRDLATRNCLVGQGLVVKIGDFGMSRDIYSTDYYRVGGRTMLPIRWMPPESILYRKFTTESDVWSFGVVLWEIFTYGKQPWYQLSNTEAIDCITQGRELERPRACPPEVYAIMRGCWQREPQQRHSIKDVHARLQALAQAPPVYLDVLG

[32] = target: High affinity choline transporter 1 (Homo sapiens, UniProt Q9GZV3); assay: Antagonist activity at CHT1; format: functional
Sequence of High affinity choline transporter 1 (Q9GZV3 whole entry): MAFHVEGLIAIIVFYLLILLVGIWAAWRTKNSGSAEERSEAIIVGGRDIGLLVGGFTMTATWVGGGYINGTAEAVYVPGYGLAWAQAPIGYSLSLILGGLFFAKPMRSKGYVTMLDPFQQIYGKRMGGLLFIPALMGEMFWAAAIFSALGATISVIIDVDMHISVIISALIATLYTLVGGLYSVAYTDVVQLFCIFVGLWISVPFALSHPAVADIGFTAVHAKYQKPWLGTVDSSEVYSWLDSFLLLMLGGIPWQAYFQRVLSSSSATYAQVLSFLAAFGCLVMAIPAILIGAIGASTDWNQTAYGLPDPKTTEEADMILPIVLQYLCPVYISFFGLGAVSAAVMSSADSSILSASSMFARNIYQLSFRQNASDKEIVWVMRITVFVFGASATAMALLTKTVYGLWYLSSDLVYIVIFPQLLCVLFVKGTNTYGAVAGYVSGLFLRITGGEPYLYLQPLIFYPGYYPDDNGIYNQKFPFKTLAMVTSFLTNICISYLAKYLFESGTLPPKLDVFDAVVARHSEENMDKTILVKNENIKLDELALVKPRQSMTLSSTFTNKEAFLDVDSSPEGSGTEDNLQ

[33] = Antagonist activity at GABA-gated chloride channel; format: functional
[34] = target: Adenosine receptor A3 (Homo sapiens, UniProt P0DMS8); assay: Antagonist activity at adenosine A3 receptor; format: functional
Sequence of Adenosine receptor A3 (P0DMS8 whole entry): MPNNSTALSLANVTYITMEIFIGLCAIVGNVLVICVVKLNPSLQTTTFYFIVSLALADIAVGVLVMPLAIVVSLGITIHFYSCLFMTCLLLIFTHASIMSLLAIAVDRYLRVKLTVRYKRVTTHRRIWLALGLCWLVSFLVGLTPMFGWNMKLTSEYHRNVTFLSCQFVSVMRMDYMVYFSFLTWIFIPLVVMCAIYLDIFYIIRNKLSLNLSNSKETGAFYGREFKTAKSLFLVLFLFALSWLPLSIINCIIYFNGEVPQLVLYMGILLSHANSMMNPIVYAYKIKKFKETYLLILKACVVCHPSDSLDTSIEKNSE

[35] = target: D(1A) dopamine receptor (Homo sapiens, UniProt P21728); assay: Antagonist activity at dopamine D1 receptor; format: functional
Sequence of D(1A) dopamine receptor (P21728 whole entry): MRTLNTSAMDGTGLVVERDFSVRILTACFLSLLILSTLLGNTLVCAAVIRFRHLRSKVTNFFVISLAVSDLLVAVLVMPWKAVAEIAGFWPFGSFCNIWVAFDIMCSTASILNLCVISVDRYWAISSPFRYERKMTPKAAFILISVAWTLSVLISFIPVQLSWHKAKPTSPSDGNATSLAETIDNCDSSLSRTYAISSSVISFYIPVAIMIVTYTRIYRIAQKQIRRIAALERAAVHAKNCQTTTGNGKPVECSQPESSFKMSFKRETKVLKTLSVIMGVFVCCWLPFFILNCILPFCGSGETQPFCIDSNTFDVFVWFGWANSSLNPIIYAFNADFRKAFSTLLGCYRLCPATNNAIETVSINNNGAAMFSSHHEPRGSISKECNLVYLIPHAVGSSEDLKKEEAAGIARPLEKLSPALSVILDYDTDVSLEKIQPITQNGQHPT

[36] = Selectivity ratio of human elastase to HCV NS3 protease
[37] = Oral bioavailability in rhesus monkey; format: ADME, organism-based, Macaca mulatta; settings: in vivo
[38] = target: T3, Renin (Homo sapiens, UniProt P00797); assay: Inhibition of renin
T3 sequence (P00797 whole entry): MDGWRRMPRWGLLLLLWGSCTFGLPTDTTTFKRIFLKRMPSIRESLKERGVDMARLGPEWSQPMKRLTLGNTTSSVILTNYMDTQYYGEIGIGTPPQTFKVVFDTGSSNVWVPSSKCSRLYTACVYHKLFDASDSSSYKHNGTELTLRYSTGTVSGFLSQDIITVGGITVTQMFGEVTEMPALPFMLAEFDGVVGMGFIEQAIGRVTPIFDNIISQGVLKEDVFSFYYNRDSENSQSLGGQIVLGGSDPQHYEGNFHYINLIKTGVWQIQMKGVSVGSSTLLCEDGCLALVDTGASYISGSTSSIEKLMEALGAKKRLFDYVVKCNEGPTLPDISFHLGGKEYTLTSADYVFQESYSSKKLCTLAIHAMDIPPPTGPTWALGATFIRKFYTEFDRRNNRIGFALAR

[39] = target: Beta-secretase 1 (Homo sapiens, UniProt P56817); assay: Inhibition of BACE1 by cell based assay
Sequence of Beta-secretase 1 (P56817 whole entry): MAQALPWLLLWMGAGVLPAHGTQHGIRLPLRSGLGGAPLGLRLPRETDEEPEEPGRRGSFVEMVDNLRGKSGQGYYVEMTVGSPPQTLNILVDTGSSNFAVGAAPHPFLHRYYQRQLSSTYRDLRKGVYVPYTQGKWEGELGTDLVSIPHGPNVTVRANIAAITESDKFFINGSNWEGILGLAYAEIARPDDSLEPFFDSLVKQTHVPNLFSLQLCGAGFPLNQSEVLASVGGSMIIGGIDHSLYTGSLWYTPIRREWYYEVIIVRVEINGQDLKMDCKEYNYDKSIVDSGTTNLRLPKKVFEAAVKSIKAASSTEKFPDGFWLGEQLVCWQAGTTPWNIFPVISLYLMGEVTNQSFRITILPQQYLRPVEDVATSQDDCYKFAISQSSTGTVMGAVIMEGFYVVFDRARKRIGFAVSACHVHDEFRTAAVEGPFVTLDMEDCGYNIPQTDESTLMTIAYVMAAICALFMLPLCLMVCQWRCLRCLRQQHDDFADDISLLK

T1 sequence (Q92847 whole entry): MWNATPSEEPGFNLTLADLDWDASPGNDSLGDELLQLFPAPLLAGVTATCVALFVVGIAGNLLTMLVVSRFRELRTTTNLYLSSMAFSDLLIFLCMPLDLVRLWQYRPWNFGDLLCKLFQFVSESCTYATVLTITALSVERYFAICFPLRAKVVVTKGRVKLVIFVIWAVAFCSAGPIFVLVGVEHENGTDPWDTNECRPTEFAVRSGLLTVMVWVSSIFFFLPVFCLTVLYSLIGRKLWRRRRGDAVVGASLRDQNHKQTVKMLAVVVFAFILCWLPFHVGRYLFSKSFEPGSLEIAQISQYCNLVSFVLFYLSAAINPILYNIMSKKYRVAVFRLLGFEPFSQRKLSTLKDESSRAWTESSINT

Compound: c1ccc(CNCc2ccc(CN3CCCNCCNCCCNCC3)cc2)nc1
IC50 [13]: 12.4 nM

Compound: N#CCNc1nc(Nc2ccccc2)ncc1Br
IC50 [14]: 100 nM
IC50 [15]: 100 nM
IC50 [16]: 4000 nM

Compound: CC[C@H](C)[C@@H]1NCCOc2ccccc2CCCNC(=O)[C@@H](Cc2ccc(Cl)cc2)NC(=O)[C@@H](C)N(C)C1=O
EC50 [27]: 14 nM
Ki [2]: 1 nM

Compound: NCCCC[C@@H]1NC(=O)c2cc([N+](=O)[O-])ccc2NCc2ccc(C(N)=O)cc2NC(=O)[C@H](CO)NC1=O
IC50 [31]: 4000 nM

Compound: Cn1c2cnc1OCC/C=C\CCCCOc1ccccc1-2
IC50 [32]: 3200 nM
IC50 [33]: 7200 nM
IC50 [34]: 850 nM
IC50 [35]: 1100 nM

Compound: CC(C)(C)NC(=O)N[C@H](C(=O)N1C[C@H]2[C@@H]([C@H]1C(=O)NC(CC1CCC1)C(=O)C(N)=O)C2(C)C)C(C)(C)C (stereo partly specified)
Selectivity ratio [36]: 2800

Compound: O=C1CCC[C@H](CN2CCOCC2)OC(=O)[C@H](O)[C@H](CC2CCCCC2)NC(=O)[C@@H](NC(=O)[C@H](Cc2ccccc2)N[C@@H]2CN3CCC2CC3)CO1
bioavailability [37]: 1%
IC50 [38]: 1.3 nM

Compound: CC(C)[C@H](NC(=O)OC(C)(C)C)C(=O)N[C@@H](C)C(=O)N[C@@H](Cc1ccccc1)[C@@H](O)C[C@@H](C)C(=O)N[C@H](C(=O)NCc1ccncc1)C(C)C
IC50 [39]: 2100 nM

Now from value to compound:

IC50 [1]: 500 nM
Ki [2]: 100 nM
Compound: CC[C@H](C)[C@@H]1NCCOc2ccccc2CCCNC(=O)[C@@H](Cc2ccccc2)NC(=O)[C@H](CO)N(C)C1=O

Kp [3]: 100
IC50 [4]: 0.2 nM
IC50 [5]: 0.2 nM
IC50 [6]: 0.2 nM
IC50 [7]: 0.2 nM
IC50 [8]: 0.2 nM
IC50 [9]: 0.2 nM
IC50 [10]: 0.2 nM
Kp [11]: 10
EC50 [12]: 1.8 nM
Compound: CC(C)(C)OC(=O)N[C@H]1CCCCC/C=C\[C@@H]2C[C@@]2(C(=O)NS(=O)(=O)C2CC2)NC(=O)[C@@H]2C[C@@H](OC(=O)N3Cc4cccc(F)c4C3)CN2C1=O [DANOPREVIR]

fraction unbound [17]: 0.009
half-life [18]: 7 h
half-life [19]: 0.8 h
half-life [20]: 4.2 h
bioavailability [21]: 7%
bioavailability [22]: 36%
bioavailability [23]: 13%
Ki [9]: 0.3 nM
Compound: COc1ccc2c(O[C@@H]3C[C@H]4C(=O)N[C@]5(C(=O)O)C[C@H]5/C=C\CCCCC[C@H](NC(=O)OC5CCCC5)C(=O)N4C3)cc(-c3csc(NC(C)C)n3)nc2c1

half-life [19]: 4 h
half-life [20]: 5.1 h
bioavailability [22]: 100%
Ki [9]: 0.5 nM
clearance [24]: 38 mL/min/kg
Kp [11]: > 35
EC50 [25]: 25 nM
EC50 [26]: 28 nM
Compound: COc1ccc2c(O[C@@H]3C[C@H]4C(=O)N[C@]5(C(=O)NS(=O)(=O)C6CC6)C[C@H]5/C=C\CCCCN(C)C(=O)[C@@H]4C3)cc(-c3nc(C(C)C)cs3)nc2c1C

IC50 [28]: 630 nM
IC50 [29]: > 10000 nM
IC50 [30]: ≤ 10 nM
Compound: Cc1ccc2c(ccn2C[C@@H]2C/C=C/[C@H](c3ccc(CP(=O)(O)O)cc3)[C@H](CC(=O)O)C(=O)NC3(CCCCC3)C(=O)N[C@@H](CC(N)=O)C(=O)NC2)c1

Source: ChEMBL document CHEMBL2203227, “Macrocycles are great cycles: applications, opportunities, and challenges of synthetic macrocycles in drug discovery” (J Med Chem, 2011)
